System: type II diabetic patients
Test: Concurrent oral administration with sulfonylurea to type II diabetic patients
Type: in vivo, human
Conditions: type II diabetic patients on sulfonylureas (glipizide, glyburide or glimepiride); 15 mg/day oral, concurrently with sulfonylurea, plural months

## CCCCCS(=O)(=O)NC(=O)c1ccc2nc(C)n(Cc3ccc(Cl)cc3Cl)c2c1 [(3), 1-(2,4-dichlorobenzyl)-2-methyl-N-(pentylsulfonyl)-1H-benzimidazole-6-carboxamide]
  HbAlc decrease: not less than 1 % point
